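Step 1: Grow cells in 96-well plates. Step 2: Expose to compound for 48 hours at 5 concentrations. Step 3: Interpolate endpoints linearly; if unreached, use highest concentration. Here, GI50 denotes the concentration required for 50% inhibition of growth.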 Active and inactive are the calls of the source. Rule as the data show it: active = GI50 up to about 1.1 µM and inactive = higher. Square brackets hold non-standard residues; d marks the D form. Peptide text beside a SMILES is read from it. * marks the point of attachment. X26 = COC1=CC(=O)N(C(=O)[C@@H](O*)C(C)C)[C@H]1Cc1ccccc1; Bn2Val = CC(C)[C@@H](C(=O)*)N(Cc1ccccc1)Cc1ccccc1; NMeV = CN[C@H](C(=O)O)C(C)C; dNMeA = CN[C@H](C)C(=O)O
Tests used:
Experiment in all cases: NCI-60 cell line screen, 48 h
786-0 = tested on: 786-0
DU-145 = tested on: DU-145
HCC 2998 = tested on: HCC 2998
HOP-92 = tested on: HOP-92
HT-29 = tested on: HT-29
K562 = tested on: K562
MDA-MB-435 = tested on: MDA-MB-435
MDA-N = tested on: MDA-N
Malme-3M = tested on: Malme-3M
NCI-H460 = tested on: NCI-H460
OVCAR-5 = tested on: OVCAR-5
OVCAR-8 = tested on: OVCAR-8
SK-MEL-28 = tested on: SK-MEL-28
SK-MEL-2 = tested on: SK-MEL-2
SNB-19 = tested on: SNB-19
SW-620 = tested on: SW-620
TK-10 = tested on: TK-10
U-251 = tested on: U-251
NCI-H23 = tested on: NCI-H23
RPMI-8226 = tested on: RPMI-8226

Compound	GI50 (786-0)	GI50 (DU-145)	GI50 (HCC 2998)	GI50 (HOP-92)	GI50 (HT-29)	GI50 (K562)	GI50 (MDA-MB-435)	GI50 (MDA-N)	GI50 (Malme-3M)	GI50 (NCI-H460)	GI50 (OVCAR-5)	GI50 (OVCAR-8)	GI50 (SK-MEL-28)	GI50 (SK-MEL-2)	GI50 (SNB-19)	GI50 (SW-620)	GI50 (TK-10)	GI50 (U-251)	GI50 (NCI-H23)	GI50 (RPMI-8226)
COC1=CC(=O)N(C(=O)[C@@H](OC(=O)[C@@H](C)N(C)C(=O)[C@@H]2CCCN2C(=O)[C@H](C(C)C)N(C)C(=O)[C@@H](NC(=O)[C@H](C(C)C)N(Cc2ccccc2)Cc2ccccc2)C(C)C)C(C)C)[C@H]1Cc1ccccc1 (Bn2Val-V[NMeV]P[dNMeA]-X26)	98.2 µM (inactive)	> 100 µM (inactive)	> 100 µM (inactive)	> 49.3 µM (inactive)	> 100 µM (inactive)	6.78 µM (inactive)	> 100 µM (inactive)	> 100 µM (inactive)	> 59.6 µM (inactive)	> 100 µM (inactive)	> 100 µM (inactive)	> 100 µM (inactive)	> 100 µM (inactive)	> 50.7 µM (inactive)	> 90.2 µM (inactive)	> 100 µM (inactive)	> 100 µM (inactive)	11.4 µM (inactive)	–	–
COc1cccc(C2c3cc4c(cc3OC(NNc3ccccc3)C2C)OCO4)c1OC (configuration not stated)	19.4 µM (inactive)	5.19 µM (inactive)	2.29 µM (inactive)	–	12 µM (inactive)	1.49 µM (inactive)	3.04 µM (inactive)	5.46 µM (inactive)	12.2 µM (inactive)	3.26 µM (inactive)	6.62 µM (inactive)	7.6 µM (inactive)	24.2 µM (inactive)	10.1 µM (inactive)	17.6 µM (inactive)	19.1 µM (inactive)	2.61 µM (inactive)	6.04 µM (inactive)	10.7 µM (inactive)	2.92 µM (inactive)
COc1ccc(C2N(c3ccc(F)c([N+](=O)[O-])c3)C(=O)N3C(c4ccc(OC)cc4)N(c4ccc(F)c([N+](=O)[O-])c4)C(=O)N23)cc1 (configuration not stated)	> 100 µM (inactive)	> 100 µM (inactive)	> 100 µM (inactive)	23.1 µM (inactive)	> 100 µM (inactive)	–	> 100 µM (inactive)	> 100 µM (inactive)	> 100 µM (inactive)	> 100 µM (inactive)	> 100 µM (inactive)	> 100 µM (inactive)	> 100 µM (inactive)	> 100 µM (inactive)	> 100 µM (inactive)	> 100 µM (inactive)	> 100 µM (inactive)	> 100 µM (inactive)	> 100 µM (inactive)	> 100 µM (inactive)
Cc1ccc([N+](=O)[O-])cc1NC(=O)C(=O)C1CCC2=C(Sc3ccccc3N2)C1=O (configuration not stated)	> 100 µM (inactive)	> 100 µM (inactive)	> 100 µM (inactive)	> 100 µM (inactive)	> 100 µM (inactive)	–	> 100 µM (inactive)	> 100 µM (inactive)	–	> 100 µM (inactive)	> 100 µM (inactive)	66.8 µM (inactive)	> 100 µM (inactive)	> 100 µM (inactive)	> 100 µM (inactive)	> 100 µM (inactive)	> 100 µM (inactive)	> 100 µM (inactive)	> 100 µM (inactive)	–
O=c1[nH]c2c(C(F)(F)F)c(Cl)c(-c3ccccc3)nc2o1	24.4 µM (inactive)	38.1 µM (inactive)	25.5 µM (inactive)	9.33 µM (inactive)	23.3 µM (inactive)	27.2 µM (inactive)	28.3 µM (inactive)	14.8 µM (inactive)	–	23.9 µM (inactive)	11.8 µM (inactive)	31.3 µM (inactive)	22.8 µM (inactive)	18.5 µM (inactive)	25.5 µM (inactive)	33.8 µM (inactive)	31.2 µM (inactive)	19.3 µM (inactive)	15.3 µM (inactive)	–
Nc1nc(NCCCO)cc(=O)[nH]1	> 100 µM (inactive)	> 100 µM (inactive)	> 100 µM (inactive)	> 100 µM (inactive)	> 100 µM (inactive)	> 100 µM (inactive)	> 100 µM (inactive)	> 100 µM (inactive)	> 100 µM (inactive)	> 100 µM (inactive)	> 100 µM (inactive)	> 100 µM (inactive)	> 100 µM (inactive)	> 100 µM (inactive)	> 100 µM (inactive)	> 100 µM (inactive)	–	> 100 µM (inactive)	> 100 µM (inactive)	> 100 µM (inactive)
CCN1CCN=C2c3cc(OC)ccc3Nc3c([N+](=O)[O-])ccc1c32	0.512 µM (active)	2.72 µM (inactive)	0.78 µM (active)	0.622 µM (active)	0.705 µM (active)	0.473 µM (active)	1.01 µM (active)	0.839 µM (active)	0.841 µM (active)	–	–	0.621 µM (active)	2.32 µM (inactive)	–	–	0.472 µM (active)	3.75 µM (inactive)	–	1.35 µM (inactive)	0.552 µM (active)
COc1cccc(N2CCc3c(C)c(C#N)c4nc5ccccc5n4c32)c1	58.3 µM (inactive)	> 100 µM (inactive)	> 100 µM (inactive)	22.1 µM (inactive)	> 100 µM (inactive)	> 100 µM (inactive)	> 100 µM (inactive)	> 100 µM (inactive)	> 100 µM (inactive)	> 100 µM (inactive)	> 100 µM (inactive)	41.4 µM (inactive)	> 100 µM (inactive)	94.8 µM (inactive)	39.3 µM (inactive)	> 100 µM (inactive)	> 100 µM (inactive)	53.6 µM (inactive)	> 100 µM (inactive)	–
COC(=O)Nc1nc2ccccc2[nH]1 [CARBENDAZIM]	9.53 µM (inactive)	5.18 µM (inactive)	5.37 µM (inactive)	> 100 µM (inactive)	4.66 µM (inactive)	–	2.34 µM (inactive)	2.98 µM (inactive)	> 43.9 µM (inactive)	3.36 µM (inactive)	49.4 µM (inactive)	10.8 µM (inactive)	16.2 µM (inactive)	17.8 µM (inactive)	10.1 µM (inactive)	3.57 µM (inactive)	> 49.2 µM (inactive)	4.86 µM (inactive)	14.2 µM (inactive)	5.25 µM (inactive)
Cc1[nH]c(=O)[nH]c(=O)c1N(CCF)CCCl [FLUORODOPAN]	451 µM (inactive)	582 µM (inactive)	353 µM (inactive)	109 µM (inactive)	442 µM (inactive)	244 µM (inactive)	419 µM (inactive)	409 µM (inactive)	349 µM (inactive)	–	483 µM (inactive)	–	420 µM (inactive)	432 µM (inactive)	316 µM (inactive)	–	495 µM (inactive)	369 µM (inactive)	348 µM (inactive)	–
CC(=O)[C@@H]1[C@@H](OC(=O)CCC(C)COC2OC(CO)C(O)C(O)C2O)C[C@H]2[C@@H]3CC=C4C[C@@H](OC5OC(CO)C(OC6OC(C)C(O)C(O)C6O)C(O)C5OC5OC(C)C(O)C(O)C5O)CC[C@]4(C)[C@H]3CC[C@]12C (some centres not stated)	> 100 µM (inactive)	> 100 µM (inactive)	> 100 µM (inactive)	–	–	> 100 µM (inactive)	> 100 µM (inactive)	> 100 µM (inactive)	52.5 µM (inactive)	> 100 µM (inactive)	> 100 µM (inactive)	> 100 µM (inactive)	> 100 µM (inactive)	> 100 µM (inactive)	> 100 µM (inactive)	64.7 µM (inactive)	> 100 µM (inactive)	> 100 µM (inactive)	> 100 µM (inactive)	> 100 µM (inactive)
C[C@]12CC(c3ccccc3O1)C(C#N)C(=O)N2 (some centres not stated)	> 100 µM (inactive)	> 100 µM (inactive)	> 100 µM (inactive)	> 100 µM (inactive)	> 100 µM (inactive)	> 100 µM (inactive)	> 100 µM (inactive)	> 100 µM (inactive)	> 100 µM (inactive)	> 100 µM (inactive)	> 100 µM (inactive)	> 100 µM (inactive)	> 100 µM (inactive)	> 100 µM (inactive)	> 100 µM (inactive)	> 100 µM (inactive)	–	> 100 µM (inactive)	> 100 µM (inactive)	> 100 µM (inactive)
O=C([O-])C1([n+]2c(-c3ccccc3)cc(-c3ccccc3)cc2-c2ccccc2)CC1	57.1 µM (inactive)	> 100 µM (inactive)	29.3 µM (inactive)	19.8 µM (inactive)	48.8 µM (inactive)	27.5 µM (inactive)	19.2 µM (inactive)	53.8 µM (inactive)	34.5 µM (inactive)	74.5 µM (inactive)	> 100 µM (inactive)	> 100 µM (inactive)	> 100 µM (inactive)	–	43.2 µM (inactive)	> 100 µM (inactive)	> 100 µM (inactive)	28.7 µM (inactive)	86.9 µM (inactive)	32.2 µM (inactive)
CCOC(=O)c1ccc(/N=C2\Sc3nc4ccccc4n3\C2=N\c2ccc(C(=O)OCC)cc2)cc1	11.8 µM (inactive)	28.9 µM (inactive)	41.8 µM (inactive)	12.8 µM (inactive)	19.6 µM (inactive)	–	59.2 µM (inactive)	18.5 µM (inactive)	22.7 µM (inactive)	22.5 µM (inactive)	60 µM (inactive)	29.4 µM (inactive)	39.2 µM (inactive)	39.3 µM (inactive)	12.1 µM (inactive)	21.5 µM (inactive)	17.3 µM (inactive)	–	22.6 µM (inactive)	–

— ChEMBL document CHEMBL1201862, “PubChem BioAssay data set” (2004)
